In ChEMBL document CHEMBL1137652, “Prevalence and expression of the plasmid-mediated quinolone resistance determinant qnrA1” (2007) one finds MIC and Ratio data, which are given here for 13 molecules.

Assay [1] has as its system Escherichia coli. The assay can be described thus: Antibacterial activity against Escherichia coli isolate 1B harboring qnrA1 and blaVEB1 genes by agar dilution method. (Agar dilution tests growth on a series of plates holding different concentrations.)
The subject of the next assay is Citrobacter freundii. The assay can be described thus: Antimicrobial activity Citrobacter freundii 64 expressing plasmid-mediated quinolone resistance qnr A gene by agar dilution method. Type of assay: functional.
Assay [2] concerns Escherichia coli. Description: Antimicrobial activity against azide-resistant Escherichia coli J53 by agar dilution method. The assay is classed as functional.
Assay [3] deals with Enterobacter cloacae. Description: Antimicrobial activity Enterobacter cloacae 641 expressing plasmid-mediated quinolone resistance qnr A gene by agar dilution method. Type of assay: functional.
Assay [4] has as its system Escherichia coli. Description: Antimicrobial activity against azide-resistant aac(6')-Ib-cr expressing Escherichia coli J53 qnrA1 bearing pHS6 transconjugant from Escherichia coli 650 by agar dilution method. The assay is classed as functional.
The test system of assay [5] is Escherichia coli. The assay can be described thus: Antimicrobial activity against azide-resistant aac(6')-Ib-cr deficient Escherichia coli J53 qnrA1 bearing pHS4 transconjugant from Enterobacter cloacae 91 by agar dilution method. Type of assay: functional.
The test system of assay [6] is Enterobacter cloacae. Description: Antimicrobial activity Enterobacter cloacae 63 expressing plasmid-mediated quinolone resistance qnr A gene by agar dilution method. The assay is classed as functional.
For assay [7], the system named is Escherichia coli. Description: Antimicrobial activity against azide-resistant aac(6')-Ib-cr expressing Escherichia coli J53 qnrA1 bearing pHS3 transconjugant from Citrobacter freundii 64 by agar dilution method. Type of assay: functional.
For assay [8], the system named is Escherichia coli. The assay can be described thus: Antimicrobial activity Escherichia coli 633 expressing plasmid-mediated quinolone resistance qnr A gene by agar dilution method. The assay is classed as functional.
In assay [9] the test system is Escherichia coli. Description: Antimicrobial activity against azide-resistant aac(6')-Ib-cr deficient Escherichia coli J53 qnrA1 bearing pHS5 transconjugant from Enterobacter cloacae 641 by agar dilution method. Type of assay: functional.
The test system of assay [10] is Escherichia coli. The assay can be described thus: microbe, parasite or virus in culture. The following applies: 650.
Description: (§1) Antimicrobial activity Escherichia coli 650 expressing plasmid-mediated quinolone resistance qnr A gene by agar dilution method
In assay [11] the test system is Enterobacter cloacae. The assay can be described thus: Antimicrobial activity Enterobacter cloacae 113 expressing plasmid-mediated quinolone resistance qnr A gene by agar dilution method. The assay is classed as functional.
The subject of assay [12] is Enterobacter cloacae. Description: Antimicrobial activity Enterobacter cloacae 91 expressing plasmid-mediated quinolone resistance qnr A gene by agar dilution method. Type of assay: functional.
For assay [13], the system named is Escherichia coli. Description: Ratio of MIC for pKK232-8-HS6-transformed Escherichia coli HB101 transformants to MIC for pKK232-8-HS3-transformed Escherichia coli HB101 transformants. The assay is classed as functional.
Assay [14] deals with Escherichia coli. The assay can be described thus: Ratio of MIC for pKK232-8-HS6-transformed Escherichia coli HB101 transformants to MIC for pKK232-8-HS5-transformed Escherichia coli HB101 transformants. Type of assay: functional.
For assay [15], the system named is Escherichia coli. The assay can be described thus: Antibacterial activity against pKK232-8-HS6-transformed Escherichia coli HB101 transformants harboring promoter sequence of qnrA1 gene cloned with promoterless cat gene by agar dilution method. Type of assay: functional.
Assay [16] relates to Escherichia coli. Description: Antibacterial activity against pKK232-8-HS4-transformed Escherichia coli HB101 transformants harboring promoter sequence of qnrA1 gene cloned with promoterless cat gene by agar dilution method. Type of assay: functional.
Assay [17] deals with Escherichia coli. Description: Antibacterial activity against pKK232-8-HS3-transformed Escherichia coli HB101 transformants harboring promoter sequence of qnrA1 gene cloned with promoterless cat gene by agar dilution method. The assay is classed as functional.
The subject of assay [18] is Escherichia coli. Description: Antibacterial activity against pKK232-8-HS5-transformed Escherichia coli HB101 transformants harboring promoter sequence of qnrA1 gene cloned with promoterless cat gene by agar dilution method. Type of assay: functional.
For assay [19], the system named is Escherichia coli. Description: Antibacterial activity against Escherichia coli HB101 by agar dilution method. Type of assay: functional.
Assay [20] has as its system Escherichia coli. The assay can be described thus: Ratio of MIC for pKK232-8-HS6-transformed Escherichia coli HB101 transformants to MIC for pKK232-8-HS4-transformed Escherichia coli HB101 transformants. The assay is classed as functional.
The test system of assay [21] is Escherichia coli. The assay can be described thus: Antibacterial activity against pKK232-8-tranformed Escherichia coli HB101 transformants harboring promoterless cat gene by agar dilution method. Type of assay: functional.
The subject of assay [22] is Escherichia coli. As to conditions: 650.
Description: as §1

≈ marks a conversion by molar mass, not a printed value.

Turning to `O=C(O)c1cn(C2CC2)c2cc(N3CCNCC3)c(F)cc2c1=O` [CIPROFLOXACIN], the MIC with Escherichia coli [1] is > 32 µg/mL.

As to `CO/N=C(\C(=O)N[C@@H]1C(=O)N2C(C(=O)O)=C(COC(C)=O)CS[C@H]12)c1csc(N)n1` [CEFOTAXIME], the MIC against Citrobacter freundii was 2 µg/mL (≈ 4.39 µM); against Escherichia coli [2], ≤ 0.06 µg/mL; against Enterobacter cloacae [3], 32 µg/mL (≈ 70.3 µM); in the assay on Escherichia coli [4], 0.125 µg/mL (≈ 0.274 µM); in the assay on Escherichia coli [5], 8 µg/mL (≈ 17.6 µM); in the assay on Enterobacter cloacae [6], 64 µg/mL (≈ 141 µM). For the same molecule, the MIC in the assay with Escherichia coli [7] is ≤ 0.06 µg/mL; in the assay on Escherichia coli [8], ≥ 128 µg/mL; against Escherichia coli [9], 8 µg/mL (≈ 17.6 µM); with Escherichia coli [10], 1 µg/mL (≈ 2.2 µM); with Enterobacter cloacae [11] it was 64 µg/mL (≈ 141 µM); in the assay with Enterobacter cloacae [12] it was 32 µg/mL (≈ 70.3 µM).

With `Cc1cc(NS(=O)(=O)c2ccc(N)cc2)no1` [SULFAMETHOXAZOLE], the MIC against Citrobacter freundii is ≥ 512 µg/mL; against Escherichia coli [2], 8 µg/mL (≈ 31.6 µM); against Enterobacter cloacae [3], ≥ 512 µg/mL; with Escherichia coli [4], ≥ 512 µg/mL; in the assay on Escherichia coli [5], ≥ 512 µg/mL; with Enterobacter cloacae [6] it was ≥ 512 µg/mL. The MIC with Escherichia coli [7], against Escherichia coli [8], with Escherichia coli [9], in the assay with Escherichia coli [10], with Enterobacter cloacae [11] and against Enterobacter cloacae [12] was ≥ 512 µg/mL each time.

Regarding `CC(C)(O/N=C(\C(=O)N[C@@H]1C(=O)N2C(C(=O)[O-])=C(C[n+]3ccccc3)CS[C@H]12)c1csc(N)n1)C(=O)O` [CEFTAZIDIME], the MIC with Citrobacter freundii stood at 4 µg/mL (≈ 7.32 µM); with Escherichia coli [2], 0.125 µg/mL (≈ 0.229 µM); with Enterobacter cloacae [3], 64 µg/mL (≈ 117 µM); against Escherichia coli [4] it was 0.125 µg/mL (≈ 0.229 µM); in the assay on Escherichia coli [5] it was 8 µg/mL (≈ 14.6 µM); against Enterobacter cloacae [6] it was 32 µg/mL (≈ 58.5 µM). For the same molecule, the MIC against Escherichia coli [7] is 0.125 µg/mL (≈ 0.229 µM); against Escherichia coli [8], 4 µg/mL (≈ 7.32 µM); against Escherichia coli [9] it was 32 µg/mL (≈ 58.5 µM); with Escherichia coli [10] it was 4 µg/mL (≈ 7.32 µM); in the assay on Enterobacter cloacae [11] it was 128 µg/mL (≈ 234 µM); in the assay on Enterobacter cloacae [12] it was 128 µg/mL (≈ 234 µM).

Take `CC1(C)S[C@@H]2[C@H](NC(=O)[C@H](N)c3ccccc3)C(=O)N2[C@H]1C(=O)O` [AMPICILLIN]: the MIC against Escherichia coli [2] was 8 µg/mL (≈ 22.9 µM); against Escherichia coli [4], 512 µg/mL (≈ 1470 µM); in the assay with Escherichia coli [5], ≥ 512 µg/mL; against Escherichia coli [7], 512 µg/mL (≈ 1470 µM); in the assay on Escherichia coli [9], ≥ 512 µg/mL.

Turning to `NCC[C@H](O)C(=O)N[C@@H]1C[C@H](N)[C@@H](O[C@H]2O[C@H](CN)[C@@H](O)[C@H](O)[C@H]2O)[C@H](O)[C@H]1O[C@H]1O[C@H](CO)[C@@H](O)[C@H](N)[C@H]1O` [AMIKACIN], the MIC in the assay with Escherichia coli [2] came to 0.5 µg/mL (≈ 0.854 µM); in the assay on Escherichia coli [4], 2 µg/mL (≈ 3.42 µM); against Escherichia coli [5], 4 µg/mL (≈ 6.83 µM); against Escherichia coli [7], 2 µg/mL (≈ 3.42 µM); with Escherichia coli [9], 4 µg/mL (≈ 6.83 µM).

With `COc1cc(Cc2cnc(N)nc2N)cc(OC)c1OC` [TRIMETHOPRIM], the MIC in the assay with Escherichia coli [2] is ≤ 0.06 µg/mL; against Escherichia coli [4] it was 0.25 µg/mL (≈ 0.861 µM); against Escherichia coli [5], ≥ 512 µg/mL; with Escherichia coli [7], ≤ 0.06 µg/mL; in the assay on Escherichia coli [9], ≥ 512 µg/mL.

In the case of `C[C@H]1COc2c(N3CCN(C)CC3)c(F)cc3c(=O)c(C(=O)O)cn1c23.C[C@H]1COc2c(N3CCN(C)CC3)c(F)cc3c(=O)c(C(=O)O)cn1c23.O` [LEVOFLOXACIN], the MIC turned out to be 0.38 µg/mL in the assay with Escherichia coli [4], 0.19 µg/mL in the assay on Escherichia coli [5], 0.19 µg/mL against Escherichia coli [7] and 0.19 µg/mL in the assay on Escherichia coli [9].

For `NC[C@H]1O[C@H](O[C@H]2[C@H](O)[C@@H](O[C@H]3O[C@H](CO)[C@@H](O)[C@H](N)[C@H]3O)[C@H](N)C[C@@H]2N)[C@H](N)C[C@@H]1O` [TOBRAMYCIN], the MIC in the assay on Escherichia coli [2] was 0.25 µg/mL (≈ 0.535 µM); against Escherichia coli [4], 8 µg/mL (≈ 17.1 µM); in the assay on Escherichia coli [5], 8 µg/mL (≈ 17.1 µM); with Escherichia coli [7], 8 µg/mL (≈ 17.1 µM); in the assay with Escherichia coli [9] it was 8 µg/mL (≈ 17.1 µM).

On to `CN[C@@H]1[C@H](O[C@H]2[C@H](O[C@H]3[C@H](O)[C@@H](O)[C@H](N=C(N)N)[C@@H](O)[C@@H]3N=C(N)N)O[C@@H](C)[C@]2(O)C=O)O[C@@H](CO)[C@H](O)[C@H]1O` [STREPTOMYCIN], for which the MIC turned out to be 1 µg/mL (≈ 1.72 µM) with Escherichia coli [2]; 1 µg/mL (≈ 1.72 µM) in the assay with Escherichia coli [4]; 8 µg/mL (≈ 13.8 µM) in the assay with Escherichia coli [5]; 2 µg/mL (≈ 3.44 µM) in the assay with Escherichia coli [7]; 8 µg/mL (≈ 13.8 µM) in the assay on Escherichia coli [9].

Take `NC[C@H]1O[C@H](O[C@H]2[C@H](O)[C@@H](O[C@H]3O[C@H](CO)[C@@H](O)[C@H](N)[C@H]3O)[C@H](N)C[C@@H]2N)[C@H](O)[C@@H](O)[C@@H]1O` [KANAMYCIN]: the MIC turned out to be 0.5 µg/mL (≈ 1.03 µM) in the assay on Escherichia coli [2]; 16 µg/mL (≈ 33 µM) with Escherichia coli [4]; 64 µg/mL (≈ 132 µM) with Escherichia coli [5]; 8 µg/mL (≈ 16.5 µM) with Escherichia coli [7]; 64 µg/mL (≈ 132 µM) in the assay with Escherichia coli [9].

In the case of `O=C(N[C@H](CO)[C@H](O)c1ccc([N+](=O)[O-])cc1)C(Cl)Cl` [CHLORAMPHENICOL], the Ratio in the assay on Escherichia coli [13], in the assay with Escherichia coli [14] and in the assay with Escherichia coli [20] was 12 throughout. Also, the MIC worked out at 96 µg/mL (≈ 297 µM) with Escherichia coli [15]; 8 µg/mL (≈ 24.8 µM) in the assay on Escherichia coli [16]; 8 µg/mL (≈ 24.8 µM) with Escherichia coli [17]; 8 µg/mL (≈ 24.8 µM) in the assay with Escherichia coli [18]; 3 µg/mL (≈ 9.28 µM) in the assay on Escherichia coli [19]; 3 µg/mL (≈ 9.28 µM) with Escherichia coli [21].

For GENTAMICIN, the MIC was 32 µg/mL against Citrobacter freundii; 0.25 µg/mL in the assay on Escherichia coli [2]; 4 µg/mL against Enterobacter cloacae [3]; 0.25 µg/mL with Escherichia coli [4]; > 128 µg/mL against Escherichia coli [22]; 2 µg/mL against Escherichia coli [5]. The MIC is 4 µg/mL in the assay with Enterobacter cloacae [6]; 8 µg/mL against Escherichia coli [7]; > 128 µg/mL with Escherichia coli [8]; 2 µg/mL against Escherichia coli [9]; 8 µg/mL with Enterobacter cloacae [11]; 8 µg/mL in the assay on Enterobacter cloacae [12].
